Measurements published in US9637492B2, “Benzothiazole kinase inhibitors and methods of use” (Intellikine LLC, priority 2008, dated 2017).

Experiments:
mTORC = biological target: T1, mTORC (Homo sapiens, UniProt P42345); assay: mTOR inhibition assay (Table 4, mTORC); format: biochemical; settings: binned
T1 construct: purchased Invitrogen
Method: The compounds described herein can be tested against recombinant mTOR (Invitrogen) in an assay containing 50 mM HEPES, pH 7.5, 1 mM EGTA, 10 mM MgCl2, 2.5 mM, 0.01% Tween, 10 μM ATP (2.5 μCi of […]), and 3 μg/mL BSA. Rat recombinant PHAS-1/4EBP1 (Calbiochem; 2 mg/mL) is used as a substrate. Reactions are terminated by spotting onto nitrocellulose, which is washed with 1M NaCl/1% phosphoric acid (approximately 6 times, 5-10 minutes each). Sheets are dried and the transferred radioactivity quantitated by phosphorimaging.
Other kits or systems for assaying mTOR activity are commercially avaiable. For instance, one can use Invitrogen's LanthaScreen™ Kinase assay to test the inhibitors of mTOR disclosed herein. This assay is a time resolved FRET platform that measures the phosphorylation of GFP labeled 4EBP1 by mTOR kinase. The kinase reaction is performed in a white 384 well microtitre plate. The total reaction volume is 20 ul per well and the reaction buffer composition is 50 mM HEPES pH7.5, 0.01% Polysorbate 20, 1 mM EGTA, 10 mM MnC12, and 2 mM DTT. In the first step, each well receives 2 ul of test compound in 20% dimethylsulphoxide resulting in a 2% DMSO final concentration. Next, 8 ul of mTOR diluted in reaction buffer is added per well for a 60 ng/ml final concentration. To start the reaction, 10 ul of an ATP/GFP-4EBP1 mixture (diluted in reaction buffer) is added per well for a final concentration of 10 uM ATP and 0.5 uM GFP-4EBP1. The plate is sealed and incubated for 1 hour at room temperature. The reaction is stopped by adding 10 ul per well of a Tb-anti-pT46 4EBP1 antibody/EDTA mixture (diluted in TR-FRET buffer) for a final concentration of 1.3 nM antibody and 6.7 mM EDTA. The plate is sealed, incubated for 1 hour at room temperature, and then read on a plate reader set up for LanthaScreen™ TR-FRET. Data is analyzed and IC50s are generated using GraphPad Prism 5.

PI3K alpha = biological target: T2, PI3K alpha (Homo sapiens, UniProt P42336); assay: PI3K alpha inhibition assay; format: biochemical; settings: binned
T2 construct: purchased Upstate
Method: (§1) For TLC analysis, reactions are then terminated by the addition of 105 μl 1N HCl followed by 160 μl CHC13:MeOH (1:1). The biphasic mixture is vortexed, briefly centrifuged, and the organic phase is transferred to a new tube using a gel loading pipette tip precoated with CHCl3. […] The TLC plates are then dried, exposed to a phosphorimager screen (Storm, Amersham), and quantitated.
(§2) Anr exemplary system is PI 3-Kinase (human) HTRF™ Assay from Upstate. […] Briefly, the assay is a time resolved FRET assay that indirectly measures PIP3 product formed by the activity of a PI3-K. The kinase reaction is performed in a microtitre plate (e.g., a 384 well microtitre plate). The total reaction volume is approximately 20 ul per well. In the first step, each well receives 2 ul of test compound in 20% dimethylsulphoxide resulting in a 2% DMSO final concentration. Next, approximately 14.5 ul of a kinase/PIP2 mixture (diluted in 1× reaction buffer) is added per well for a final concentration of 0.25-0.3 ug/ml kinase and 10 uM PIP2. The plate is sealed and incubated for 15 minutes at room temperature. To start the reaction, 3.5 ul of ATP (diluted in 1× reaction buffer) is added per well for a final concentration of 10 uM ATP. The plate is sealed and incubated for 1 hour at room temperature. The reaction is stopped by adding 5 ul of Stop Solution per well and then 5 ul of Detection Mix is added per well. The plate is sealed, incubated for 1 hour at room temperature, and then read on an appropriate plate reader. Data is analyzed and IC50s are generated using GraphPad Prism 5.

PI3K beta = biological target: T3, PI3K beta (Homo sapiens, UniProt P42338); assay: PI3K beta inhibition assay; format: biochemical; settings: binned
T3 construct: purchased Upstate
Method: as §1, §2

PI3K delta = biological target: T4, PI3K delta (Homo sapiens, UniProt O00329); assay: PI3K delta inhibition assay; format: biochemical; settings: binned
T4 construct: purchased Upstate
Method: as §1, §2

PI3K gamma = biological target: T5, PI3K gamma (Homo sapiens, UniProt P48736); assay: PI3K gamma inhibition assay; format: biochemical; settings: binned
T5 construct: purchased Sigma
Method: For TLC analysis, reactions are then terminated by the addition of 105 μl 1N HCl followed by 160 μl CHC13:MeOH (1:1). The biphasic mixture is vortexed, briefly centrifuged, and the organic phase is transferred to a new tube using a gel loading pipette tip precoated with CHCl3. This extract is spotted on TLC plates and developed for 3-4 hours in a 65:35 solution of n-propanol:1M acetic acid. The TLC plates are then dried, exposed to a phosphorimager screen (Storm, Amersham), and quantitated. For each compound, kinase activity is measured at 10-12 inhibitor concentrations representing two-fold dilutions from the highest concentration tested (typically, 200 μM).
Other commercial kits or systems for assaying PI3-K activities are available. The commercially available kits or systems can be used to screen for inhibitors and/or agonists of PI3-Ks including but not limited to PI 3-Kinase α, β, δ, and γ. Anr exemplary system is PI 3-Kinase (human) HTRF™ Assay from Upstate. […] Briefly, the assay is a time resolved FRET assay that indirectly measures PIP3 product formed by the activity of a PI3-K. The kinase reaction is performed in a microtitre plate (e.g., a 384 well microtitre plate). […] The plate is sealed, incubated for 1 hour at room temperature, and then read on an appropriate plate reader. Data is analyzed and IC50s are generated using GraphPad Prism 5.

PC3 = assay: Tumor cell line proliferation assay (Alamar Blue); format: cell-based; settings: Homo sapiens, PC-3; binned
Method: The ability of one or more subject compounds to inhibit tumor cell line proliferation is determined according to standard procedures known in the art. For instance, an in vitro cellular proliferation assay can be performed to measure the metabolic activity of live cells. The assay is performed in a 96 well microtiter plate using Alamar Blue reduction. Human tumor cell lines are obtained from ATCC (e.g., MCF7, U-87 MG, MDA-MB-468, PC-3), grown to confluency in T75 flasks, trypsinized with 0.25% trypsin, washed one time with Tumor Cell Media (DMEM+10% FBS), and plated in 90 ul at 5,000 cells/well in Tumor Cell Media. A compound disclosed herein is diluted in Tumor Cell Media and added in a 10 ul volume. Plates are incubated for 72 hours at 37 C and 5% CO2. A volume of 10 uL of Alamar Blue reagent is added to each well and plates are incubated for 3 hours at 37 C and 5% CO2. Alamar Blue fluoresce is read at 560Ex/590Em, and IC50 values are calculated using GraphPad Prism 5.

B6.Sle1z.Sle3z model = settings: cited from earlier work
[1] = PBS pH 7.4, 37° C., over the course of 24 hours; cited from earlier work
[2] = tested on: p190 transduced leukemic cells; settings: about 70 mg/kg twice daily; cited from earlier work
[3] = control or reference compounds, 5 μM; cited from earlier work

T1 sequence (P42345 1360-2549 limits assumed): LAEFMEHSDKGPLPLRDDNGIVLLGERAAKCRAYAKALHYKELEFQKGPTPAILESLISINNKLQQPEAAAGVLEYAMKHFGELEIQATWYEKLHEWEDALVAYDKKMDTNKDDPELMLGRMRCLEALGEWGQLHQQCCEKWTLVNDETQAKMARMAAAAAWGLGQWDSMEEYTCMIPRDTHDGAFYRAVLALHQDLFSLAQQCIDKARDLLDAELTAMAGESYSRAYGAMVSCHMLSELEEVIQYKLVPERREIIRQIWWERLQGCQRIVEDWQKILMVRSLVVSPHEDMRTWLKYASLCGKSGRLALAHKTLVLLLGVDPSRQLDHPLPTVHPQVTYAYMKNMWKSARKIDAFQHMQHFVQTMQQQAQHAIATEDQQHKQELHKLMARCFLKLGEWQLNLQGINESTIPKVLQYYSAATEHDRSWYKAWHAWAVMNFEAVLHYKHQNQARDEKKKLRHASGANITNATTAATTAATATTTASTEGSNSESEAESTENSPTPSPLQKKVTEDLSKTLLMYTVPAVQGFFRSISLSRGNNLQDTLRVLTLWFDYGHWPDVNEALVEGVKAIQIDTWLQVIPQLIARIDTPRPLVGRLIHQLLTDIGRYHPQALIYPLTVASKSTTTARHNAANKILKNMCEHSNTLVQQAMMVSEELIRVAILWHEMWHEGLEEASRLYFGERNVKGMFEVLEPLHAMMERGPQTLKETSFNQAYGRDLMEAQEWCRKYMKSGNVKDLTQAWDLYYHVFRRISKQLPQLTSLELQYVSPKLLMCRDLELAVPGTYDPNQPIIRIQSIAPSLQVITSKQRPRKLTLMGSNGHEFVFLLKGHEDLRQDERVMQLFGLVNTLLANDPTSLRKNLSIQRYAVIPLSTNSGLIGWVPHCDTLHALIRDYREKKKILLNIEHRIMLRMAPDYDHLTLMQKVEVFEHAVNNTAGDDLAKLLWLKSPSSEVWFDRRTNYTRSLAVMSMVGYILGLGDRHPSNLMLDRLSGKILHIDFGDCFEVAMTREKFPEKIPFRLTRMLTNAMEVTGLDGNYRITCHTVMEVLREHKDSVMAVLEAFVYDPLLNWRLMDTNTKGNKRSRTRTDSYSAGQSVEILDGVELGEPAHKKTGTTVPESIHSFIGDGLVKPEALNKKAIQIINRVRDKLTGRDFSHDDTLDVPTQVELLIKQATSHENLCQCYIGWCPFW
T3 sequence (P42338 whole entry): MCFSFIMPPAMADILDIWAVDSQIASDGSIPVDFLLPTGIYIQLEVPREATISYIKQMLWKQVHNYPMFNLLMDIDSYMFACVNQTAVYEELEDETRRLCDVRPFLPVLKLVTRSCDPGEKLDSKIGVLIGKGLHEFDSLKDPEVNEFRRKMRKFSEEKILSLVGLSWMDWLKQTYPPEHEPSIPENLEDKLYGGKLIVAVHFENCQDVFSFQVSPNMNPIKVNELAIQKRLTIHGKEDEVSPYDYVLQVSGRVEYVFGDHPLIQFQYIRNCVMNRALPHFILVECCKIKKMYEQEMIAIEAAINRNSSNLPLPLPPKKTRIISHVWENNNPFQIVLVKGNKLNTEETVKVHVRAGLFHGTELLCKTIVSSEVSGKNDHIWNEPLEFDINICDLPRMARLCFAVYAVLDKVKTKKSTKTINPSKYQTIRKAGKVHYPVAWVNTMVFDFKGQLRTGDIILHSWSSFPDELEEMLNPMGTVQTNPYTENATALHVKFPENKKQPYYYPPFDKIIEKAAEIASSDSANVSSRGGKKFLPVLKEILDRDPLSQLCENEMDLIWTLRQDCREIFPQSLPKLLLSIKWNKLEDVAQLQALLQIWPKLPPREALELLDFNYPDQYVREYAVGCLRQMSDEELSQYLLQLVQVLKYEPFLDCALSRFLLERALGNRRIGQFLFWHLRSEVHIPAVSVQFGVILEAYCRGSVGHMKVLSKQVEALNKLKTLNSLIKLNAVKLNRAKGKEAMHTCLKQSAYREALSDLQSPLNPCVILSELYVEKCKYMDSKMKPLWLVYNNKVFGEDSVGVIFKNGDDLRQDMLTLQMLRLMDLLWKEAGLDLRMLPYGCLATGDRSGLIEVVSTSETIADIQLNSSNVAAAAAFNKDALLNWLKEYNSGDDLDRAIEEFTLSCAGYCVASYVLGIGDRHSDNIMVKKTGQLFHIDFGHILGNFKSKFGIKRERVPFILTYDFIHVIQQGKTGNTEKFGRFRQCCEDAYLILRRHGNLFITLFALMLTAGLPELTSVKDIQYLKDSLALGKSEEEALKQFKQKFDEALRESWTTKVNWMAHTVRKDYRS
T3 sequence (P27986 2-724 partner): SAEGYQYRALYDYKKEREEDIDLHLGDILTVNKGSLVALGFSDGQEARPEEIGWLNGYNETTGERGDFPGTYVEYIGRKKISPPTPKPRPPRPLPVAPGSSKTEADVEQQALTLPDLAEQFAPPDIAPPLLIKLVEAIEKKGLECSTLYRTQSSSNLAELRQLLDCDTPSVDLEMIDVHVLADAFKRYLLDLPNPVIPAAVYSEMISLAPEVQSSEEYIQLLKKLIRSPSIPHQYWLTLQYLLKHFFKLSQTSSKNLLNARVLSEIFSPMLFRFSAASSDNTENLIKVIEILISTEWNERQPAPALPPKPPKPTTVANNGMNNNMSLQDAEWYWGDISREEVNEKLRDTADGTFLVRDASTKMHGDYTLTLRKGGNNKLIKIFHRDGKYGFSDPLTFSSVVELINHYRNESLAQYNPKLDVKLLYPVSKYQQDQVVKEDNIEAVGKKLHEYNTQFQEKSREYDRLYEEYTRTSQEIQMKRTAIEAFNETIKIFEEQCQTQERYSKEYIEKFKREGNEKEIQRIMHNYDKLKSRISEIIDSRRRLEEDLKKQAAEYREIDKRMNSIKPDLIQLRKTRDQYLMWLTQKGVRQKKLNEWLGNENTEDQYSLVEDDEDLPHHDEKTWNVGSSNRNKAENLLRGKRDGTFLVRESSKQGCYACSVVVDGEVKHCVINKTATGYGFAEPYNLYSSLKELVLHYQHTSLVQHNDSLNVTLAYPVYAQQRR
T4 sequence (O00329 whole entry): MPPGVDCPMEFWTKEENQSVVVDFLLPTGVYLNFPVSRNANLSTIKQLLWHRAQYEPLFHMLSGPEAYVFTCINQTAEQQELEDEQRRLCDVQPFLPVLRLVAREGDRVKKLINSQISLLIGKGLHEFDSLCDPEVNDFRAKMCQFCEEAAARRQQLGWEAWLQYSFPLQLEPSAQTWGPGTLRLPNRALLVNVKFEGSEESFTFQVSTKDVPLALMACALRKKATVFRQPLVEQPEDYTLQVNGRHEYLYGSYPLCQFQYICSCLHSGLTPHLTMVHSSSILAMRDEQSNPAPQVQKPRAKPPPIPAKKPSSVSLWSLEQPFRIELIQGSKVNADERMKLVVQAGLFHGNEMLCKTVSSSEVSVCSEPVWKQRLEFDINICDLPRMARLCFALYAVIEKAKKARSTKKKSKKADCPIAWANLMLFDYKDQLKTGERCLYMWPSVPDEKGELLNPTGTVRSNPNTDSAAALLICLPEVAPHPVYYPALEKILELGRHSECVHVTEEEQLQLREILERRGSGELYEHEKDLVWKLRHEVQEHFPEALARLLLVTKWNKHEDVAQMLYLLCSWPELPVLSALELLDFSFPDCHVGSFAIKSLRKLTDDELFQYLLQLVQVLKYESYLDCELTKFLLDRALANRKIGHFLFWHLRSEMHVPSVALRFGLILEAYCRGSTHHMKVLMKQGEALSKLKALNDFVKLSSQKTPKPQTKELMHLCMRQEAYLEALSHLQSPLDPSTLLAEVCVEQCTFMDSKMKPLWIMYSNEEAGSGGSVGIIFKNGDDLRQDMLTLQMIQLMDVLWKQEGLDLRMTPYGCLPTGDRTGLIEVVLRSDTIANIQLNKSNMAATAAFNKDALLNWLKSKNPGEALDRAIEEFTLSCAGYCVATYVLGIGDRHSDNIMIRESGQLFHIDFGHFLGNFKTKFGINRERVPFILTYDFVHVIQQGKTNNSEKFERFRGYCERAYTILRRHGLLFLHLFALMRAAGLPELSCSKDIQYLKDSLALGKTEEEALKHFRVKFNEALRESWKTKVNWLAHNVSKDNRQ
T4 sequence (P27986 whole entry partner): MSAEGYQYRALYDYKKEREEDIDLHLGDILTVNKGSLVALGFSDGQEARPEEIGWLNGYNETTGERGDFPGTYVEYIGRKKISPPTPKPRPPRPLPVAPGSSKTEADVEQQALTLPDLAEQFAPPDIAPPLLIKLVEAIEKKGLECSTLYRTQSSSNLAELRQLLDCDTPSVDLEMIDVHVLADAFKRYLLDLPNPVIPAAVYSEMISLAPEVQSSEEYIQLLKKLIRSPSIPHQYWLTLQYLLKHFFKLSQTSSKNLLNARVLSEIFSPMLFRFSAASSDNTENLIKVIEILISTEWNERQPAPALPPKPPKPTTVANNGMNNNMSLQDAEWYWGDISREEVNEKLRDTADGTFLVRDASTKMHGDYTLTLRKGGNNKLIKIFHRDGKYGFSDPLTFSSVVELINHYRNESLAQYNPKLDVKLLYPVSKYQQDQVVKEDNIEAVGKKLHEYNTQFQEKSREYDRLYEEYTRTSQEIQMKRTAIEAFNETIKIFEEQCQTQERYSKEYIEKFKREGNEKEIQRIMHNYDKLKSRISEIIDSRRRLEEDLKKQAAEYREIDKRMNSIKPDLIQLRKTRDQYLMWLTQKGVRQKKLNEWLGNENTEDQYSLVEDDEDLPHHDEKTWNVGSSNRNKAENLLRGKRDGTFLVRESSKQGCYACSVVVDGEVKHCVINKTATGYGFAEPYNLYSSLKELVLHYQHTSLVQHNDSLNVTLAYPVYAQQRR

Compound `CC(=O)Nc1nc2ccc(-c3nn(C(C)C)c4ncnc(N)c34)cc2s1` [Compound 1] has an IC50 (mTORC) of no more than 50 nM, an IC50 (PI3K alpha) of no more than 500 nM and an IC50 (PI3K beta) greater than 1000 nM.

Work on `CC(C)n1nc(-c2ccc3ncsc3c2)c2c(N)ncnc21` [Compound 2] yielded an IC50 (mTORC) greater than 1000 nM.

Work on `CC(C)n1nc(-c2ccc3nc(N)sc3c2)c2c(N)ncnc21` [Compound 3] yielded an IC50 (mTORC) of no more than 50 nM, an IC50 (PI3K alpha) of no more than 500 nM and an IC50 (PI3K beta) greater than 1000 nM. It also gave an IC50 (PI3K delta) of no more than 100 nM.

`CC(=O)Nc1nc2ccc(-c3nn(C4CCCC4)c4ncnc(N)c34)cc2s1` [Compound 4] gave an IC50 (mTORC) of no more than 50 nM and an IC50 (PI3K beta) greater than 1000 nM.

In the case of `CCn1nc(-c2ccc3nc(NC(C)=O)sc3c2)c2c(N)ncnc21` [Compound 5], the IC50 (mTORC) is reported as no more than 50 nM, the IC50 (PI3K alpha) is reported as no more than 100 nM and the IC50 (PI3K beta) is reported as greater than 1000 nM.

For `CC(=O)Nc1nc2ccc(-c3nn(C)c4ncnc(N)c34)cc2s1` [Compound 6], the IC50 (mTORC) was greater than 1000 nM and the IC50 (PI3K alpha) was no more than 1000 nM.

Work on `CC(C)C(=O)Nc1nc2ccc(-c3nn(C(C)C)c4ncnc(N)c34)cc2s1` [Compound 7] yielded an IC50 (mTORC) greater than 1000 nM.

For `CC(C)n1nc(-c2ccc3nc(NC(=O)C4CC4)sc3c2)c2c(N)ncnc21` [Compound 8], the IC50 (mTORC) was no more than 500 nM and the IC50 (PI3K alpha) was no more than 1000 nM.

Work on `CCC(=O)Nc1nc2ccc(-c3nn(C(C)C)c4ncnc(N)c34)cc2s1` [Compound 9] yielded an IC50 (mTORC) of no more than 500 nM and an IC50 (PI3K alpha) of no more than 500 nM.

In the case of `CC(=O)Nc1nc2ccc(-c3nn(C4CCC4)c4ncnc(N)c34)cc2s1` [Compound 10], the IC50 (mTORC) is reported as no more than 100 nM, the IC50 (PI3K alpha) is reported as no more than 100 nM and the IC50 (PI3K delta) is reported as no more than 100 nM.

With `CNc1nc2ccc(-c3nn(C(C)C)c4ncnc(N)c34)cc2s1` [Compound 11] the IC50 (mTORC) was no more than 50 nM, the IC50 (PI3K alpha) was no more than 100 nM and the IC50 (PI3K beta) was greater than 1000 nM. For the same compound, the IC50 (PI3K delta) was no more than 500 nM.

With `CCNc1nc2ccc(-c3nn(C(C)C)c4ncnc(N)c34)cc2s1` [Compound 12] the IC50 (mTORC) was no more than 500 nM, the IC50 (PI3K gamma) was no more than 500 nM and the IC50 (PI3K alpha) was no more than 500 nM. The IC50 (PI3K delta) was no more than 1000 nM.

In the case of `CC(C)n1nc(-c2ccc3nc(NCCN4CCOCC4)sc3c2)c2c(N)ncnc21` [Compound 13], the IC50 (mTORC) is reported as greater than 1000 nM and the IC50 (PI3K alpha) is reported as greater than 1000 nM.

`CC(C)n1nc(-c2ccc3nc(N4CCOCC4)sc3c2)c2c(N)ncnc21` [Compound 14] gave an IC50 (mTORC) greater than 1000 nM and an IC50 (PI3K alpha) greater than 1000 nM.

With `CC(C)n1nc(-c2ccc3nc(NC4CC4)sc3c2)c2c(N)ncnc21` [Compound 15] the IC50 (mTORC) was no more than 500 nM, the IC50 (PI3K alpha) was greater than 1000 nM and the IC50 (PI3K beta) was greater than 1000 nM.

`CC(C)n1nc(-c2ccc3nc(NCCO)sc3c2)c2c(N)ncnc21` [Compound 16] gave an IC50 (mTORC) of no more than 1000 nM and an IC50 (PI3K alpha) of no more than 1000 nM.

With `CC(=O)Nc1nc2cc(-c3nn(C(C)C)c4ncnc(N)c34)ccc2s1` [Compound 17] the IC50 (mTORC) was no more than 1000 nM.

Compound `CNC(=O)Cn1nc(-c2ccc3nc(NC(C)=O)sc3c2)c2c(N)ncnc21` [Compound 18] has an IC50 (mTORC) greater than 1000 nM, an IC50 (PI3K gamma) greater than 1000 nM and an IC50 (PI3K beta) greater than 1000 nM.

`CC(=O)Nc1nc2ccc(-c3nn(C4CCOCC4)c4ncnc(N)c34)cc2s1` [Compound 19] gave an IC50 (mTORC) of no more than 50 nM and an IC50 (PI3K alpha) of no more than 500 nM.

With `CNC(=O)Nc1nc2ccc(-c3nn(C(C)C)c4ncnc(N)c34)cc2s1` [Compound 20] the IC50 (mTORC) was no more than 50 nM.

In the case of `CNC(=O)Nc1nc2ccc(-c3cn(C4CCOCC4)c4ncnc(N)c34)cc2s1` [Compound 21], the IC50 (mTORC) is reported as no more than 50 nM and the IC50 (PC3) is reported as no more than 1000 nM.

`CNC(=O)Nc1nc2ccc(-c3cn(C(C)C)c4ncnc(N)c34)cc2s1` [Compound 22] showed an IC50 (mTORC) of no more than 50 nM and an IC50 (PC3) of no more than 100 nM.

Work on `CNC(=O)Nc1nc2ccc(-c3cn(C4CCN(C(C)=O)CC4)c4ncnc(N)c34)cc2s1` [Compound 23] yielded an IC50 (mTORC) of no more than 50 nM, an IC50 (PC3) greater than 1000 nM and an IC50 (PI3K beta) of no more than 100 nM.

For `CO[C@H]1C[C@@H]2CC[C@@H](C)[C@@](O)(O2)C(=O)C(=O)N2CCCC[C@H]2C(=O)O[C@H]([C@H](C)C[C@@H]2CC[C@@H](OCCO)[C@H](OC)C2)CC(=O)[C@H](C)/C=C(\C)[C@@H](O)[C@@H](OC)C(=O)[C@H](C)C[C@H](C)/C=C/C=C/C=C/1C` [RAD001], the lupus symptoms (B6.Sle1z.Sle3z model) is listed as “ameliorate lupus symptoms”.

For `O=C(O)CCCc1ccc(N(CCCl)CCCl)cc1` [chlorambucil], the chemical stability [1] is given as “largely hydrolyzed”.

For `Cc1ccc(NC(=O)c2ccc(CN3CCN(C)CC3)cc2)cc1Nc1nccc(-c2cccnc2)n1` [imatinib], the leukemogenesis [2] is given as “delay but not cure leukemogenesis”.

In the case of `CC(C)[N+](C)(CCOC(=O)C1c2ccccc2Oc2ccccc21)C(C)C` [propantheline], the plasma stability [3] is listed as “intermediate plasma stability”.

For `CCCOc1cc(N)ccc1C(=O)OCCN(CC)CC` [propoxycaine], the plasma stability [3] is listed as “low plasma stability”.
